The text below walks through data of patent publication US20230218618A1, “ADMINISTRATION OF SUMO-ACTIVATING ENZYME INHIBITOR AND ANTI-CD38 ANTIBODIES” (MILLENNIUM PHARMACEUTICALS, INC., priority 2020, published 2023).

Assay [1] has as its system A20-hCD38 mouse B-cell lymphoma cell line engineered to express the human CD38 cell surface protein. The assay can be described thus: Study 2: A20-hCD38 syngeneic mouse tumor model. It is filed as in vivo, Balb/c mice. Conditions: for GRI%: vs vehicle; for Tumor growth relative to vehicle-treated tumors (pairwise comparison): I-263a 7.5 mg/kg QW or 15 mg/kg Q2W, daratumumab 20 mg/kg BIW, or I-263a plus daratumumab, data up to Day 15, p < 0.001. As to the method: (§1) Low tumor volumes can cause problems with the data analysis, so all measurements below 25 cubic mm (including 0 values) were excluded from the analysis. After this exclusion step, the tumor volume was assumed to follow an exponential growth model. More specifically, for a given animal and treatment group,
(§2) Pairwise comparisons were performed, where the mean growth rates were compared for various pairs of treatment conditions. The results were summarized using the growth rate inhibition (GRI). Suppose µT and µC are the mean tumor growth rates for the treatment and reference groups, respectively. Define
(§3) Here, µAB, µA, µB, and µControl are the mean growth rates for the combination, drug A, drug B, and control groups, respectively. As before, µv is the mean tumor growth rate for the vehicle group, which in most cases is the same as the control group. The standard error of the synergy score was calculated as the square root of the sum of squared standard errors across the four groups. The degrees of freedom were estimated using the Welch-Satterthwaite equation. A hypothesis test was performed to determine if the synergy score differed from 0. P-values were calculated by dividing the synergy score by its standard error and tested against a t-distribution (two-tailed) with the above-calculated degrees of freedom. A P value of less than 0.05 is statistically significant.
(§4) The combination results can be interpreted as follows. Statistically significant negative synergy scores indicate a synergistic combination (“Syn.”). Statistically significant positive synergy scores indicate a sub-additive combination (“Sub-add.”) when the combination performs better (i.e. has a lower growth rate) than the best performing single agent. Statistically significant positive synergy scores indicate an antagonistic combination (“Antag.”) when the combination performs worse than the best performing single agent. Scores that are not statistically significant should be considered additive (“Add.”).
A20-hCD38 is a mouse B-cell lymphoma cell line engineered to express the human CD38 cell surface protein. An A20-hCD38 syngeneic mouse tumor model was generated by subcutaneous inoculation with 5.0 × 10^6 cells (cell suspension) in 6 weeks old female Balb/c mice (Jackson Laboratory, 10 Discovery Dr., Farmington, CT) in the flank. When the mean tumor volume reached approximately 70 mm^3, the animals were randomized into one vehicle control and five treatment groups (n=8/group). Mice were dosed with 20% HPβCD or Compound I-263a or daratumumab over a 28-day period. Tumor growth and body weight were measured twice per week during the treatment and post-treatment periods, and mice were humanely euthanized once they had reached their humane endpoint.
A 1.575 mg/mL and a 0.788 mg/mL stock solution of I-263a was formulated weekly in 20% HPβCD and administered IV based on an average body weight using a 0.2 mL dosing volume. Final doses I-263a received were 15 mg/kg or 7.5 mg/kg, respectively. I-263a was administered on a QW or Q2W schedule for 4 weeks (Days 1, 8, 15, and 22). Daratumumab (anti-CD38 antibody) (Myoderm Medical Supplies, 48 E Main St., Norristown, PA 19401) was purchased at the beginning of the study and stored at 4° C. according to manufacturer’s instructions. Final dose daratumumab received was 20 mg/kg based on average body weight. Daratumumab was administered intraperitoneally (IP) using a 0.1 mL dosing volume, on a BIW schedule for 4 weeks (Days 1, 4, 8, 11, 15, 18, 22 and 25).
Tumors were measured twice weekly using Vernier calipers. Tumor volumes were calculated using standard equation: V = W^2 × L/2, where V = volume, W = width, and L = length for the tumor. When mean tumor volumes reached approximately 70 mm^3, mice were randomized into control and treatment groups. Mice were randomized into 6 groups (n=8/group) and dosed with vehicle (20% HPβCD), I-263a, daratumumab, or the combination of I-263a plus daratumumab at doses and schedules as described above. […]

Assay [2] relates to Daudi human Burkitt’s Lymphoma cell line. The assay can be described thus: Study 7: Daudi xenograft human Burkitt's lymphoma subcutaneous tumor model (daratumumab or AB79). It is filed as in vivo, CB17 SCID mice. Conditions: for GRI%: vs vehicle; for Tumor growth relative to vehicle-treated tumors (pairwise comparison): each agent 7.5 mg/kg BIW, I-263a p = 0.105, daratumumab p < 0.001, AB79 p = 0.002, both combinations p < 0.001, data up to Day 22. The procedure:
as §1, §2, §3, §4
Daudi is a human Burkitt’s Lymphoma cell line. A Daudi human xenograft tumor model was generated by subcutaneous inoculation with 2.0 × 10^6 Daudi cells (cell suspension) in 7 weeks old female CB17 SCID mice (Charles River Laboratories, 251 Ballardvale St., Wilmington, MA) in the flank. When the mean tumor volume reached approximately 110 mm3, the animals were randomized into one vehicle control and six treatment groups (n=8/group). Mice were then dosed with 20% HPβCD or Compound I-263a and/or daratumumab or AB79 over a 21-day period. Tumor growth and body weight were measured twice per week during the treatment and post-treatment periods, and mice were humanely euthanized once they had reached their humane endpoint.
A 0.75 mg/mL stock solution of I-263a was formulated weekly in 20% HPβCD and administered intravenously (IV) based on an average body weight using a 0.2 mL dosing volume. Final doses of I-263a received were 7.5 mg/kg. I-263a was administered on a BIW schedule for 3 weeks (Days 1, 4, 8, 11, 15, and 18). Daratumumab (anti-CD38 antibody) (Myoderm Medical Supplies, 48 E Main St., Norristown, PA 19401) was purchased at the beginning of the study and stored at 4° C. according to manufacturer’s instructions. Final dose of daratumumab received was 7.5 mg/kg based on average body weight. Daratumumab was administered intraperitoneally (IP) using a 0.1 mL dosing volume, on a BIW schedule for 3 weeks (Days, 1, 4, 8, 11, 15, and 18). AB79 was formulated on the day of dosing in 0.9% saline and administered intraperitoneally (IP) using a 0.1 mL dosing volume, on a BIW schedule for 3 weeks (Days, 1, 4, 8, 11, 15, and 18). Final dose of AB79 was 7.5 mg/kg based on average body weight.
Tumors were measured twice weekly using Vernier calipers. Tumor volumes were calculated using standard equation: V = W2 × L/2, where V = volume, W = width, and L = length for the tumor. […]

Assay [3] addresses SUMO-activating enzyme (Homo sapiens, UniProt Q9UBT2). The assay can be described thus: Biochemical assays of SUMO-activating enzyme inhibition.
Assay [4] relates to SUMO-activating enzyme and SUMOylation. The assay can be described thus: Inhibition of SUMO-activating enzyme and SUMOylation in cultured tumor cell lines. It is filed as cell-based. Particulars: cultured mouse and human tumor cell lines.

SUMO-activating enzyme, sequence (Q9UBT2 whole entry): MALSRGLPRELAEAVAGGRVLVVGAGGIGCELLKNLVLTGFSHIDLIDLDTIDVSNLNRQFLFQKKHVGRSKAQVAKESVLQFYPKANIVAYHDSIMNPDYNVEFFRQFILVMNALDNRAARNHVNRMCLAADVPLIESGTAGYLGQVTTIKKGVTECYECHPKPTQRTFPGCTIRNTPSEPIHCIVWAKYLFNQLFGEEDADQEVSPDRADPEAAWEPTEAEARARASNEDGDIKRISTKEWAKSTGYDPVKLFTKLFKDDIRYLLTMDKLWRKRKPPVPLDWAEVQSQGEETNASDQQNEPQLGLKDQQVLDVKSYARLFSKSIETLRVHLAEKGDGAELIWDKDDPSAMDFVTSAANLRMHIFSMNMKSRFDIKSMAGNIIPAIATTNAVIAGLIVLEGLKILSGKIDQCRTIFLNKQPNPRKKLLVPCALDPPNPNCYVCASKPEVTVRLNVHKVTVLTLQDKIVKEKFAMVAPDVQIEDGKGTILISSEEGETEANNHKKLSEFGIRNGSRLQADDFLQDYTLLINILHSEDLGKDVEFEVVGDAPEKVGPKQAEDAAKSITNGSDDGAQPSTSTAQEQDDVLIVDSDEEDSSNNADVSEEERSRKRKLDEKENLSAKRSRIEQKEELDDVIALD
SUMO-activating enzyme, sequence (Q9UBE0 whole entry partner): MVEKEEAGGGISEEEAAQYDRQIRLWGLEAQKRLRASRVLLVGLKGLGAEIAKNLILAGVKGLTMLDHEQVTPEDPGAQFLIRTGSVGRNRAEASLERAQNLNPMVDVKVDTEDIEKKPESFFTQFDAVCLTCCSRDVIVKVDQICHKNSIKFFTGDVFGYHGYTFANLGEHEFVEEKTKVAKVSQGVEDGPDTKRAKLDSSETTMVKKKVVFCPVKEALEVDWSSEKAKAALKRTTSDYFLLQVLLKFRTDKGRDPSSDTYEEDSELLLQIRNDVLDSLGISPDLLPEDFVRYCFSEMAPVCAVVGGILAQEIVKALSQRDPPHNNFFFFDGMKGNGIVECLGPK
SUMO-activating enzyme, sequence (P63165 1-97 partner limits assumed): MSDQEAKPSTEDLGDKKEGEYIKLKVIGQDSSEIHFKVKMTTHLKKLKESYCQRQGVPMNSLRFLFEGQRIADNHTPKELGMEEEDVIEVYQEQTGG

As for “Daratumumab: immunoglobulin G1 kappa (IgG1κ) human monoclonal antibody against CD38 antigen”, in assay [1] (Daratumumab 20 mg/kg BIW IP), the “Tumor volume on Day 15 (± SEM)” value is listed as 1443.7 ± 276.4 and the GRI% is listed as 3%. Also, the “Tumor growth relative to vehicle-treated tumors (pairwise comparison)” value in assay [1] is given as “significant tumor growth inhibition”. Besides, in assay [2] (Daratumumab 7.5 mg/kg BIW IP), the “Tumor Volume on Day 22 (±SEM)” value is on record as 1004.9 (±97.1) and the GRI% stood at 31%. Moreover, the “Tumor growth relative to vehicle-treated tumors (pairwise comparison)” value in assay [2] is on record as “tumor growth inhibition”.

Take `Cc1sc(C(=O)c2cncnc2N[C@@H]2C[C@H](COS(N)(=O)=O)[C@@H](O)C2)cc1[C@@H]1NCCc2ccc(Cl)cc21` [Compound I-263a, [(1R,2S,4R)-4-{[5-({4-[(1R)-7-chloro-1,2,3,4-tetrahydroisoquinolin-1-yl]-5-methyl-2-thienyl}carbonyl)pyrimidin-4-yl]amino}-2-hydroxycyclopentyl]methyl sulfamate]: the “Tumor volume on Day 15 (± SEM)” value in assay [1] (I-263a 7.5 mg/kg QW IV) is listed as 613.1 ± 179.3; in assay [1] (I-263a 15 mg/kg Q2W IV), 839.7 ± 229.7. Further, the results for the GRI% in assay [1] (I-263a 7.5 mg/kg QW IV), in assay [1] (I-263a 15 mg/kg Q2W IV) and in assay [2] (I-263a 7.5 mg/kg BIW IV) were 37%, 24% and 13%, respectively. For the same molecule, the “Tumor growth relative to vehicle-treated tumors (pairwise comparison)” value was “significant tumor growth inhibition” in assay [1] and “tumor growth inhibition” in assay [2]. Besides, in assay [3] (mechanism-based inhibitor forming a covalent adduct with SUMO), the “Inhibition of SUMO-activating enzyme activity” value was “potently inhibits enzyme activity”. The “Selectivity for SUMO-activating enzyme” value in assay [3] (over ubiquitin-activating enzyme, Nedd8-activating enzyme, and autophagy related 7 enzyme) is listed as “Strong selectivity”. For the same molecule, the “Inhibition of SUMO-activating enzyme and SUMOylation in cells” value in assay [4] is “Selective and potent inhibition”. Also, in assay [2] (I-263a 7.5 mg/kg BIW IV), the “Tumor Volume on Day 22 (±SEM)” value was 1305 (±83.6).
